These results are taken from patent US20260042764A1, “COMPOSITIONS AND METHODS FOR INHIBITION OF KRAS” (TheRas, Inc., priority 2022, published 2026).

SMILES strings stand for the structures.

In general, IC50 refers to the concentration needed to halve the response being measured. High values mean weaker potency in that assay, low ones greater potency in that assay.

In experiment [1] the test system is HPAC cells (KRAS G12D). In words: 3D Cell viability assay in HPAC cells (Biological Example 6). As to conditions: Homo sapiens, HPAC, 72 h, HPAC (KRAS G12D) spheroids. It is filed as cell-based. The method, then: (§1) Biological Example 6: 3D Cell viability assay in AsPC-1, SW1900, HPAC, Capan-2, RKN, H358, HCT116, KP-2, H1573, A549, MKN1, and HT1080 cells
(§2) The inhibition of cellular viability as a result of test compound treatment in a spheroid assay was measured using the CellTiter-Glow 3D Cell Viability Assay (Promega).
(§3) On Day 1, 1000 cells per well were seeded in 150 μL of complete growth media supplemented with 10% fetal bovine serum (FBS) and incubated at 37° C., in the presence of 5% CO2 in 96-well ultra-low attachment microplates (Corning) for 48 hours undisturbed to allow spheroids to form.
(§4) Following spheroid formation, cells were treated with compounds diluted in DMSO at 0.25% final DMSO concentration. Compounds were dosed in a 9-point concentration curve with three-fold dilution between concentrations. Cells were incubated in the presence of compound for 72 hours at 37° C., in the presence of 5% CO2.
(§5) Following this incubation period, the kit-provided CTG reagent was allowed to equilibrate for 30 minutes at room temperature, 150 μL of equilibrated CTG reagent was added to each well, and the plate was sealed before shaking at 250 rpm for 10 minutes at room temperature to lyse the cells, 150 μL of lysate per well was transferred to a 96-well plate and luminescence was read on a CLARIOstar plate reader.
(§6) Data was imported into the Prism software package (Graphpad) and EC50 values were calculated using the log (inhibitor) vs, response—variable slope (Four parameters) model.

The test system of experiment [2] is SW1900 cells (KRAS G12D). The experiment is described as follows: 3D Cell viability assay in SW1900 cells (Biological Example 6). The class given is cell-based. The note with it: SW1990 (text: SW1900, KRAS G12D) spheroids, 72 hours. The method, then:
as §1, §2, §3, §4, §5, §6

For experiment [3], the system named is Capan-2 cells (KRAS G12V). In words: Cell-based pERK HTRF assay in Capan-2 cells (Biological Example 5). The method, then:
(§7) Biological Example 5: Cell-based PERK HTRF assay in AsPC-1, SW1900, HPAC, Capan-2, RKN, H358, HCT116, KP-2, H1573, A549, MKN1, and HT1080 cells
(§8) The inhibition of ERK phosphorylation, as measured using the HTRF Advanced Phospho-ERK 1/2 (Thr202/Tyr204) Detection Assay kit (Perkin Elmer), was used to determine the effectiveness of test compounds in disrupting KRAS-driven protein/effector signaling in cells.
(§9) On day 1, cells were seeded into 96-well plates at 2.5×10^4 cells/well in 100 μL of complete growth media supplemented with 10% fetal bovine serum (FBS) and incubated at 37° C., in the presence of 5% CO2.
(§10) On day 2, cells were treated with compounds diluted in DMSO at 0.25% final DMSO concentration. Compounds were dosed in a 9-point concentration curve with three-fold dilution between concentrations. Cells were incubated in the presence of compound for two hours at 37° C. Following this treatment period, cells were harvested by aspirating the media, adding 40 μL of kit-supplied 1x lysis buffer per well, and shaking for 30 minutes at 250 rpm at room temperature.
(§11) Following cell lysis, samples were homogenized by pipetting up and down twenty times and 16 μL of cell lysate per well was transferred from the 96-well cell culture plate to two wells of a 384-well detection plate. A complete detection buffer was prepared by diluting D2 and Eu Cryptate antibodies 1:20 in kit-provided detection solution, 4 μL of complete detection buffer was then added to each well with lysate. Plates were incubated with gentle rocking for 24 hours at 4° C.
(§12) Following this incubation period, plates were centrifuged at 500×g for one minute and analyzed on a CLARIOstar plate reader. Data was imported into Microsoft Excel and the signal from the 665 nm channel was divided by the signal from the 620 nm channel. % pERK was calculated as: […]
(§13) Data was imported to the Prism software package (Graphpad) and EC50 values were calculated using the log (inhibitor) vs, response—variable slopc (Four parameters) model.

Experiment [4] relates to HPAC cells (KRAS G12D). In words: Cell-based pERK HTRF assay in HPAC cells (Biological Example 5). As to conditions: Homo sapiens, HPAC. The method, then: as §7, §8, §9, §10, §11, §12, §13
Experiment [5] relates to SW1900 cells (KRAS G12D). The experiment is described as follows: Cell-based pERK HTRF assay in SW1900 cells (Biological Example 5). The method, then: as §7, §8, §9, §10, §11, §12, §13
Another experiment relates to AsPC-1 cells (KRAS G12D). In words: 3D Cell viability assay in AsPC-1 cells (Biological Example 6). It is filed as cell-based. The note with it: AsPC-1 (KRAS G12D) spheroids, 72 hours. The method, then: as §1, §2, §3, §4, §5, §6
The test system of experiment [6] is Capan-2 cells (KRAS G12V). The experiment is described as follows: 3D Cell viability assay in Capan-2 cells (Biological Example 6). As to conditions: Capan-2 (KRAS G12V) spheroids, 72 hours. It is filed as cell-based. The method, then: as §1, §2, §3, §4, §5, §6
In experiment [7] the test system is H358 cells (KRAS G12C). The experiment is described as follows: Cell-based pERK HTRF assay in H358 cells (Biological Example 5). The method, then:
as §7, §8, §9, §10, §11, §12, §13

Experiment [8] deals with MKN1 cells (KRAS amplification). The experiment is described as follows: 3D Cell viability assay in MKN1 cells (Biological Example 6). It is filed as cell-based. As to conditions: MKN (MKN1, KRAS amplification) spheroids, 72 hours. The method, then: as §1, §2, §3, §4, §5, §6
Experiment [9] deals with H358 cells (KRAS G12C). The experiment is described as follows: 3D Cell viability assay in H358 cells (Biological Example 6). The class given is cell-based. The note with it: H358 (KRAS G12C) spheroids, 72 hours. The method, then: as §1, §2, §3, §4, §5, §6
Another experiment has as its system HCT116 cells (KRAS G13D). The experiment is described as follows: 3D Cell viability assay in HCT116 cells (Biological Example 6). The class given is cell-based. As to conditions: Homo sapiens, HCT-116; HCT116 (KRAS G13D) spheroids, 72 hours. The method, then: as §1, §2, §3, §4, §5, §6
Where [10] appears, read: Homo sapiens, Capan-2, Capan-2 (KRAS G12V) cells.
Setting [11] is: Homo sapiens, SW1990, SW1990 cells (text: SW1900, KRAS G12D).
Where [12] appears, read: Homo sapiens, NCI-H358, H358 (KRAS G12C) cells.

`C/C=C/C(=O)N1CC[C@H](N(CC)c2nc(OC[C@@]34CCCN3C[C@H](F)C4)nc3c(F)c(-c4ccc(F)c5sc(N)c(C#N)c45)c(C(F)(F)F)cc23)C1` (atropisomer, axis not shown) [Compound 674]: the IC50 in the experiment with HPAC cells (KRAS G12D) [1] was at most 100 nM; in the experiment on SW1900 cells (KRAS G12D) [2] (Homo sapiens), at most 100 nM; in experiment [3] (setting [10]), at most 100 nM; with HPAC cells (KRAS G12D) [4] it was at most 100 nM; with SW1900 cells (KRAS G12D) [5] (setting [11]) it was at most 100 nM; with AsPC-1 cells (KRAS G12D) (Homo sapiens, ASPC1) it was at most 100 nM. Besides, the IC50 in [6] (Homo sapiens) is at most 100 nM; in the experiment with H358 cells (KRAS G12C) [7] (setting [12]), at most 100 nM; in experiment [8] (Homo sapiens, MKN-1), at most 100 nM; with H358 cells (KRAS G12C) [9] (Homo sapiens, NCI-H358) it was at most 100 nM.

Turning to `CCN(c1nc(OC[C@@]23CCCN2C[C@H](F)C3)nc2c(F)c(-c3ccc(F)c4sc(N)c(C#N)c34)c(C(F)(F)F)cc12)[C@H]1C[C@H](C)N(C(=O)OC)C1` (atropisomer, axis not shown) [Compound 704], the IC50 in the experiment on SW1900 cells (KRAS G12D) [2] (Homo sapiens) was at most 100 nM; in experiment [3] (setting [10]) it was at most 100 nM; in the experiment with SW1900 cells (KRAS G12D) [5] (setting [11]), at most 100 nM; in the experiment on AsPC-1 cells (KRAS G12D) (Homo sapiens, ASPC1), at most 100 nM; in experiment [6] (Homo sapiens), at most 100 nM; with H358 cells (KRAS G12C) [7] (setting [12]), at most 100 nM. The IC50 was at most 100 nM in experiment [8] (Homo sapiens, MKN-1) and at most 100 nM with H358 cells (KRAS G12C) [9] (Homo sapiens, NCI-H358).

For `CCN(c1nc(OC[C@@]23CCCN2C[C@H](F)C3)nc2c(F)c(-c3ccc(F)c4sc(N)c(C#N)c34)c(C(F)(F)F)cc12)[C@H]1C[C@H](C)N(C(=O)N2CC(OC)C2)C1` (atropisomer, axis not shown) [Compound 764], the IC50 is over 1000 nM in the experiment with HPAC cells (KRAS G12D) [1]; at most 100 nM with SW1900 cells (KRAS G12D) [2] (Homo sapiens); at most 100 nM in experiment [3] (setting [10]); 100 to 1000 nM with HPAC cells (KRAS G12D) [4]; at most 100 nM in the experiment on SW1900 cells (KRAS G12D) [5] (setting [11]); at most 100 nM in the experiment on AsPC-1 cells (KRAS G12D) (Homo sapiens, ASPC1). In addition, the IC50 is at most 100 nM in [6] (Homo sapiens); at most 100 nM with H358 cells (KRAS G12C) [7] (setting [12]); at most 100 nM in [8] (Homo sapiens, MKN-1); at most 100 nM in the experiment on H358 cells (KRAS G12C) [9] (Homo sapiens, NCI-H358).

Regarding `N#Cc1c(N)sc2c(F)ccc(-c3c(C(F)(F)F)cc4c(N5CC6CC5CO6)nc(OC[C@@]56CCCN5C[C@H](F)C6)nc4c3F)c12` (stereo partly drawn) [Compound 147], the 50% inhibitory concentration (IC50) with HPAC cells (KRAS G12D) [1] is 100 to 1000 nM; in the experiment on SW1900 cells (KRAS G12D) [2] (Homo sapiens), 100 to 1000 nM; in [3] (setting [10]), at most 100 nM; in the experiment on HCT116 cells (KRAS G13D) it was 100 to 1000 nM; in the experiment on H358 cells (KRAS G12C) [9] (Homo sapiens, NCI-H358) it was at most 100 nM.

`CCN(c1nc(OC[C@@]23CCCN2C[C@H](F)C3)nc2c(F)c(-c3ccc(F)c4sc(N)c(C#N)c34)c(C(F)(F)F)cc12)[C@H]1C[C@H](C)N(C(C)=O)C1` [Compound 463]: the IC50 was over 1000 nM in the experiment on HPAC cells (KRAS G12D) [1]; at most 100 nM in the experiment with SW1900 cells (KRAS G12D) [2] (Homo sapiens); at most 100 nM in [3] (setting [10]); 100 to 1000 nM with HPAC cells (KRAS G12D) [4]; at most 100 nM with SW1900 cells (KRAS G12D) [5] (setting [11]); at most 100 nM in the experiment on AsPC-1 cells (KRAS G12D) (Homo sapiens, ASPC1). Moreover, the IC50 in experiment [6] (Homo sapiens) is at most 100 nM; with H358 cells (KRAS G12C) [7] (setting [12]), at most 100 nM; in experiment [8] (Homo sapiens, MKN-1) it was at most 100 nM; in the experiment on H358 cells (KRAS G12C) [9] (Homo sapiens, NCI-H358), at most 100 nM.

Turning to `CCN(c1nc(OCC23CCCN2CC(F)C3)nc2c(F)c(-c3ccc(F)c4sc(N)c(C#N)c34)c(C(F)(F)F)cc12)C1CC(C)N(C(=O)N2CC(F)C2)C1` (stereo not drawn) [Compound 759], the IC50 was at most 100 nM in the experiment with SW1900 cells (KRAS G12D) [2]; at most 100 nM in experiment [3] (Capan-2 (KRAS G12V) cells); at most 100 nM in the experiment with SW1900 cells (KRAS G12D) [5] (SW1990 cells (text: SW1900, KRAS G12D)); at most 100 nM in the experiment with AsPC-1 cells (KRAS G12D); at most 100 nM in [6]; at most 100 nM in the experiment on H358 cells (KRAS G12C) [7] (H358 (KRAS G12C) cells). For the same compound, the 50% inhibitory concentration (IC50) (in experiment [8]; in the experiment on H358 cells (KRAS G12C) [9]) was at most 100 nM in each case.
